According to ChEMBL document CHEMBL1828590 (J Med Chem, 2011):

Key:
[1] = tested on: A2780; assay: Antiproliferative activity against human A2780 cells after 96 hrs by celltiter 96 assay; format: functional, cell-based; conditions: A2780, 96 h
[2] = Oral bioavailability in nude BALB/c mouse at 50 mg/kg; format: ADME, organism-based; conditions: in vivo
[3] = tested on: HCT-116; assay: Antiproliferative activity against human HCT116 cells after 96 hrs by celltiter 96 assay; format: functional, cell-based; conditions: HCT-116, 96 h
[4] = tested on: HCT-116; assay: Antitumor activity against human HCT116 cells xenografted in nude BALB/c mouse assessed as tumor growth inhibition at 50 mg/kg, po qd for 21 days measured on day 15; format: functional; conditions: read-out: TGI
[5] = tested on: PC-3; assay: Antiproliferative activity against human PC3 cells after 96 hrs by celltiter 96 assay; format: functional, cell-based; conditions: PC-3, 96 h
[6] = tested on: HCT-116; assay: Antitumor activity against human HCT116 cells xenografted in nude BALB/c mouse assessed as tumor growth inhibition at 50 mg/kg, po qd for 21 days measured on day 18; format: functional; conditions: read-out: TGI
[7] = tested on: Mus musculus; assay: Toxicity in nude BALB/c mouse xenografted with human HCT116 cells assessed as mouse survival at 50 mg/kg, po QD for 21 days measured on day 22; format: organism-based, HCT-116; parameters: dose 50 mg/kg, route oral; conditions: in vivo, 504 h
[8] = tested on: COLO 205; assay: Antiproliferative activity against human COLO205 cells after 96 hrs by celltiter 96 assay; format: functional, cell-based; conditions: COLO 205, 96 h
[9] = tested on: Mus musculus; assay: Toxicity in nude BALB/c mouse xenografted with human HCT116 cells assessed as body weight loss at 50 mg/kg, po QD for 21 days measured on day 12; format: organism-based, HCT-116; parameters: dose 50 mg/kg, route oral; conditions: in vivo, 504 h

`Cc1[nH]c2ccccc2c1CCNCc1ccc(/C=C/C(=O)NO)cc1` [PANOBINOSTAT] gave an IC50 [1] of 35 nM, a bioavailability [2] of 4.6% and an IC50 [3] of 48 nM. The inhibition in vivo at 50 mg/kg [4] was 41%, the IC50 [5] was 24 nM and the inhibition in vivo at 50 mg/kg [6] was 61%. The Activity [7] was “Non-toxic”, the IC50 [8] was 18 nM and the Activity [9] was 17.3%.
